{"source": "ChEMBL document CHEMBL2390902", "about": "“Discovery of 1-(1,3,5-triazin-2-yl)piperidine-4-carboxamides as inhibitors of soluble epoxide hydrolase” (Bioorg Med Chem Lett, 2013)", "key": {"[1]": {"target": "Neurotensin receptor type 1 (Homo sapiens) (UniProt P30989)", "sequence (P30989 whole entry)": "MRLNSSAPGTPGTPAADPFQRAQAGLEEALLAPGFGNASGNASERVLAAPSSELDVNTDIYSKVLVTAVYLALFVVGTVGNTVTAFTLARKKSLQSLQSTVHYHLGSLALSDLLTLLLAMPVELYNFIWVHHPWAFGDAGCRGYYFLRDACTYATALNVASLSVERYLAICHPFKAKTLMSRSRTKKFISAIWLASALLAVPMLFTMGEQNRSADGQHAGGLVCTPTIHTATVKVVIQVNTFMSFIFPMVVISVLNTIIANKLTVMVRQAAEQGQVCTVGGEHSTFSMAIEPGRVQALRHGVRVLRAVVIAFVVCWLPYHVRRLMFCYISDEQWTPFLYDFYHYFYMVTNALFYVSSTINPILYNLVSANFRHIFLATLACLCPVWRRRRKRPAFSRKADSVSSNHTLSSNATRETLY", "experiment": "Inhibition of human NTS1 receptor at 1 uM relative to control"}, "[2]": {"target": "5-hydroxytryptamine receptor 7 (Homo sapiens) (UniProt P34969)", "sequence (P34969 whole entry)": "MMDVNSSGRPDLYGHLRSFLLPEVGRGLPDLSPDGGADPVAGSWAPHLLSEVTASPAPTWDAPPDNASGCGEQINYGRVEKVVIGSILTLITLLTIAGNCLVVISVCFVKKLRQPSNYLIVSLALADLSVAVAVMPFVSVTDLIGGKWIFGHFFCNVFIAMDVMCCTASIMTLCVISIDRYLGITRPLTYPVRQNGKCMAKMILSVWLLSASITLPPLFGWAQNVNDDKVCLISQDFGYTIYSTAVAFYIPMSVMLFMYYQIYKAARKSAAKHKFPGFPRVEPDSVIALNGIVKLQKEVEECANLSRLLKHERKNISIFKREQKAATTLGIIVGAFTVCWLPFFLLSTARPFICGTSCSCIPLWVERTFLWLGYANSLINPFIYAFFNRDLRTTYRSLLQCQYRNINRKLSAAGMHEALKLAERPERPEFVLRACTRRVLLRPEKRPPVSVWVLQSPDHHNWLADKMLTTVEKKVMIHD", "experiment": "Inhibition of human 5-HT7 receptor at 1 uM relative to control"}, "[3]": {"test_system": "Rattus norvegicus", "experiment": "Free maximum concentration of drug in rat at 2 mg/kg, po", "format": "ADME, organism-based", "set-up": "dose 2 mg/kg, route oral", "conditions": "in vivo"}, "[4]": {"target": "Vasopressin V1a receptor (Homo sapiens) (UniProt P37288)", "sequence (P37288 whole entry, looked up)": "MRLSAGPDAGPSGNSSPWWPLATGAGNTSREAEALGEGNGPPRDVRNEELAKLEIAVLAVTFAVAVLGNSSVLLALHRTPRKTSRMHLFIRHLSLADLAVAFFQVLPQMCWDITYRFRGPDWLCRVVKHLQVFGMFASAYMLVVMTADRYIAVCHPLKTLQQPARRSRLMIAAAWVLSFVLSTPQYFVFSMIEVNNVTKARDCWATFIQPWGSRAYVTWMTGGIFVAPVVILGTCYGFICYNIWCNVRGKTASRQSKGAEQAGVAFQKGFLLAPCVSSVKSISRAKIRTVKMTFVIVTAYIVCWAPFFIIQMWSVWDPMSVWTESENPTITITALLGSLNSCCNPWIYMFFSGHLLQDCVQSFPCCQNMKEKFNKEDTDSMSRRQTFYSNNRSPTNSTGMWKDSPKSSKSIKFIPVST", "experiment": "Inhibition of human vasopressin V1a receptor at 1 uM relative to control"}, "[5]": {"target": "5-hydroxytryptamine receptor 5A (Homo sapiens) (UniProt P47898)", "sequence (P47898 whole entry)": "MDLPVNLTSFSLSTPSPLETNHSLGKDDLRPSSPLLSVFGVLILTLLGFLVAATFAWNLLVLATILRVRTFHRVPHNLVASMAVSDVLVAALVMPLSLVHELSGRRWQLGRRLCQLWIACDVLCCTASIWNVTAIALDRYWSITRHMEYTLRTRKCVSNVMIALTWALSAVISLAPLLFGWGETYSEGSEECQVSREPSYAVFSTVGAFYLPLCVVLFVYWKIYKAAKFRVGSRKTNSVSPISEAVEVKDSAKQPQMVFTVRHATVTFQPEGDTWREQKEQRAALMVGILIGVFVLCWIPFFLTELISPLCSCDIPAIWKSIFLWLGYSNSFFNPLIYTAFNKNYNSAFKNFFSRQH", "experiment": "Inhibition of human 5-HT5A receptor at 1 uM relative to control"}, "[6]": {"experiment": "Cmax in rat at 20 mg/kg, po", "format": "ADME, organism-based", "set-up": "dose 20 mg/kg, route oral", "conditions": "in vivo"}, "[7]": {"target": "Muscarinic acetylcholine receptor M3 (Homo sapiens) (UniProt P20309)", "experiment": "Inhibition of human M3 receptor at 1 uM relative to control"}, "[8]": {"target": "Beta-1 adrenergic receptor (Homo sapiens) (UniProt P08588)", "experiment": "Inhibition of human beta1 receptor at 1 uM relative to control"}, "[9]": {"target": "Adrenergic receptor alpha-2 (Homo sapiens) (UniProt P08913+P18825+P18089)", "experiment": "Inhibition of human alpha2 receptor at 1 uM relative to control"}, "[10]": {"target": "Vasoactive intestinal polypeptide receptor 1 (Homo sapiens) (UniProt P32241)", "sequence (P32241 whole entry)": "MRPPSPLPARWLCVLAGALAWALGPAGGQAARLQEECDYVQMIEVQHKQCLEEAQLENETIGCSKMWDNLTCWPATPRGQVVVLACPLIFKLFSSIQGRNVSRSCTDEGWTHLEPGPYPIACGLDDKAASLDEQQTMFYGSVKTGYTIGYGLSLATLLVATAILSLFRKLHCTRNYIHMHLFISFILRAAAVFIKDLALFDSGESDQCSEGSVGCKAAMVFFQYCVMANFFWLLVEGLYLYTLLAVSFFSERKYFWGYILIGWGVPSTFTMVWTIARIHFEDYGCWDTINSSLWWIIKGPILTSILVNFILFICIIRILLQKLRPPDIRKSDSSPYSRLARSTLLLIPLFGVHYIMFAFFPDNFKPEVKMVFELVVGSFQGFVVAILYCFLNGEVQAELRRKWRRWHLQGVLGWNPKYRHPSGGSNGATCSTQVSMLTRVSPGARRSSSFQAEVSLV", "experiment": "Inhibition of human VPAC1 receptor at 1 uM relative to control"}, "[11]": {"target": "5-hydroxytryptamine receptor 1A (Homo sapiens) (UniProt P08908)", "sequence (P08908 whole entry)": "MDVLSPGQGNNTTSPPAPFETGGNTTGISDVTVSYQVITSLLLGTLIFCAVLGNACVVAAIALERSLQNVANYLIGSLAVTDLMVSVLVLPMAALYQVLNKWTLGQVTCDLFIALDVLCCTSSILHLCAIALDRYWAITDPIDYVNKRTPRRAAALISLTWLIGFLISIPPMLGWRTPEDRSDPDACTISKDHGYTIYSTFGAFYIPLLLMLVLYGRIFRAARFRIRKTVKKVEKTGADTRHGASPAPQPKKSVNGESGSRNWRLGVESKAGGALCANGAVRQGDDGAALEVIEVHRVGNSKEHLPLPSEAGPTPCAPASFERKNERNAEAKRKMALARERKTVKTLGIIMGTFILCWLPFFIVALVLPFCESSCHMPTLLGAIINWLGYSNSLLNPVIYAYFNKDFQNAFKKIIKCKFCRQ", "experiment": "Inhibition of human 5-HT1A receptor at 1 uM relative to control"}, "[12]": {"experiment": "Volume of distribution at steady state in rat at 2 mg/kg, iv", "format": "ADME, organism-based", "set-up": "dose 2 mg/kg, route intravenous", "conditions": "in vivo, read-out: Vdss"}, "[13]": {"target": "Endothelin-1 receptor (Homo sapiens) (UniProt P25101)", "experiment": "Inhibition of human ETA receptor at 1 uM relative to control"}, "[14]": {"target": "Adenosine receptor A1 (Homo sapiens) (UniProt P30542)", "experiment": "Inhibition of human adenosine A1 receptor at 1 uM relative to control"}, "[15]": {"target": "5-hydroxytryptamine receptor 6 (Homo sapiens) (UniProt P50406)", "sequence (P50406 whole entry)": "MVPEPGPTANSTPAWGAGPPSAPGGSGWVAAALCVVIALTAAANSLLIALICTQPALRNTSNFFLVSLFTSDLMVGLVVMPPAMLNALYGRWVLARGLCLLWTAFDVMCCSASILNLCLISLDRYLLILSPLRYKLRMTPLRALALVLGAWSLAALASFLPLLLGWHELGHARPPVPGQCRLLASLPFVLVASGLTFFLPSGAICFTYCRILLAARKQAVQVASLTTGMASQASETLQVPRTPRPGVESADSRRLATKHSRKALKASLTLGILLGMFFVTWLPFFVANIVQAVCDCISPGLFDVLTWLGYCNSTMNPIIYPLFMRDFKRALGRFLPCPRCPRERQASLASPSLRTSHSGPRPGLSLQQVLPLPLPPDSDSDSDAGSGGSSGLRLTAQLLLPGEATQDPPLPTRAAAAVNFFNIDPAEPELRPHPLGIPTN", "experiment": "Inhibition of human 5-HT6 receptor at 1 uM relative to control"}, "[16]": {"target": "Adrenergic receptor alpha-1 (Homo sapiens) (UniProt P35348+P25100+P35368)", "experiment": "Inhibition of human alpha1 receptor at 1 uM relative to control"}, "[17]": {"target": "Cytochrome P450 2C8 (Homo sapiens, UniProt P10632)", "sequence (P10632 whole entry)": "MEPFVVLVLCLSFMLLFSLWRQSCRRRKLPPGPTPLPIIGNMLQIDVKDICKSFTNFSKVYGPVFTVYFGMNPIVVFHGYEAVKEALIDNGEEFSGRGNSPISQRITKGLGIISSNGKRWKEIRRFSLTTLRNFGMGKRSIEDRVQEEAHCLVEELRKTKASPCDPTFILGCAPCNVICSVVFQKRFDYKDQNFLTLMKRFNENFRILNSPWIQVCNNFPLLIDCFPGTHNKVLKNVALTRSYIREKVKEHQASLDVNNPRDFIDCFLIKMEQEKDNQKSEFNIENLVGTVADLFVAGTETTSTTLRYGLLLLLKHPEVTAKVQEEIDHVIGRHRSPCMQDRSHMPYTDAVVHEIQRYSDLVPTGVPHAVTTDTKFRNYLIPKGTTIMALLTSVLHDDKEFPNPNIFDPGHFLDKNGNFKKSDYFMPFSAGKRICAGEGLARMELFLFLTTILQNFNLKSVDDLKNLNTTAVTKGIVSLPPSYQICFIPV", "experiment": "Inhibition of CYP2C8 (unknown origin)", "format": "ADME"}, "[18]": {"target": "Adenosine receptor A2a (Homo sapiens) (UniProt P29274)", "sequence (P29274 whole entry)": "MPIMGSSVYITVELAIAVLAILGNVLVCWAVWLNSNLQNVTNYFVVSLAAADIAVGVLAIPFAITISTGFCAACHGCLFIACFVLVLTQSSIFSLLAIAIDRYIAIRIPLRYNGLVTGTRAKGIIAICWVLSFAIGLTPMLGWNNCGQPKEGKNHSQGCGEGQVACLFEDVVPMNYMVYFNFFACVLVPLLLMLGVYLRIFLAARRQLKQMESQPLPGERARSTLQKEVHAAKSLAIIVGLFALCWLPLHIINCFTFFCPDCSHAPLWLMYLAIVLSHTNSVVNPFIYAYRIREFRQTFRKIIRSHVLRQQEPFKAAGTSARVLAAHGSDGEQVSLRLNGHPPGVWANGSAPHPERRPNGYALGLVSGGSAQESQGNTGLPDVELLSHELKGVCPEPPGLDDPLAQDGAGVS", "experiment": "Inhibition of human adenosine A2A receptor at 1 uM relative to control"}, "[19]": {"target": "D(1A) dopamine receptor (Homo sapiens) (UniProt P21728)", "sequence (P21728 whole entry)": "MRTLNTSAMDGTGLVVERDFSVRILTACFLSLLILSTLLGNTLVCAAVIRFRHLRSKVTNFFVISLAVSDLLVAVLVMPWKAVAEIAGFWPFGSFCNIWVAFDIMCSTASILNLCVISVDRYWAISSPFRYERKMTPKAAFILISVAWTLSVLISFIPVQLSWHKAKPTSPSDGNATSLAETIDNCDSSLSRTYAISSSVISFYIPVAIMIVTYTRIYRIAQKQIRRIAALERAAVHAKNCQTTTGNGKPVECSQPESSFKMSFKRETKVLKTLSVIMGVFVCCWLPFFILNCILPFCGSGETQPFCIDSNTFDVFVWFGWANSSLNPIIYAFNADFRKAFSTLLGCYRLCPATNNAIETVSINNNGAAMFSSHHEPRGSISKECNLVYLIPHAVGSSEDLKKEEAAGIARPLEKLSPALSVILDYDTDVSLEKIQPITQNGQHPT", "experiment": "Inhibition of human dopamine D1 receptor at 1 uM relative to control"}, "[20]": {"experiment": "Cmax in rat at 0.2 mg/kg, po", "format": "ADME, organism-based", "set-up": "dose 0.2 mg/kg, route oral", "conditions": "in vivo"}, "[21]": {"target": "Melanocortin receptor 4 (Homo sapiens) (UniProt P32245)", "sequence (P32245 whole entry)": "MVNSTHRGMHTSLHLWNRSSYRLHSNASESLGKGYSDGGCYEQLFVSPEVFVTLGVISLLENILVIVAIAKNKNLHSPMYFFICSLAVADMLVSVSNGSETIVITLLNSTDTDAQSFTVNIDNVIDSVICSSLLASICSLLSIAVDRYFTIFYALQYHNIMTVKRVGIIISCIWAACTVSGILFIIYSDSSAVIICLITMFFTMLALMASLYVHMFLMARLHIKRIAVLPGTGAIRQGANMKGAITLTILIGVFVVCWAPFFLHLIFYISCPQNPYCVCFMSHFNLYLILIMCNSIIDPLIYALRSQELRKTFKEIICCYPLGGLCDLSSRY", "experiment": "Inhibition of human MC4 receptor at 1 uM relative to control"}, "[22]": {"target": "Cholecystokinin receptor type A (Homo sapiens) (UniProt P32238)", "experiment": "Inhibition of human CCK1 receptor at 1 uM relative to control"}, "[23]": {"target": "Neuropeptide Y receptor type 2 (Homo sapiens) (UniProt P49146)", "experiment": "Inhibition of human Y2 receptor at 1 uM relative to control"}, "[24]": {"species": "Homo sapiens", "experiment": "Inhibition of human GABA receptor at 1 uM relative to control"}}}
{"smiles": "CNc1nc(C)nc(N2CCC(C(=O)NCc3ccc(Br)cc3OC(F)(F)F)CC2)n1", "values": [{"measurement": "inhibition", "setting": "[1]", "result": "< 50", "unit": "%"}, {"measurement": "inhibition", "setting": "[2]", "result": "< 50", "unit": "%"}, {"measurement": "fCmax", "setting": "[3]", "result": 3, "unit": "nM"}, {"measurement": "inhibition", "setting": "[4]", "result": "< 50", "unit": "%"}, {"measurement": "inhibition", "setting": "[5]", "result": "< 50", "unit": "%"}, {"measurement": "Cmax", "setting": "[6]", "result": 1490, "unit": "nM"}, {"measurement": "inhibition", "setting": "[7]", "result": "< 50", "unit": "%"}, {"measurement": "inhibition", "setting": "[8]", "result": "< 50", "unit": "%"}, {"measurement": "inhibition", "setting": "[9]", "result": "< 50", "unit": "%"}, {"measurement": "inhibition", "setting": "[10]", "result": "< 50", "unit": "%"}, {"measurement": "inhibition", "setting": "[11]", "result": "< 50", "unit": "%"}, {"measurement": "Vd", "setting": "[12]", "result": 2.1, "unit": "L/kg"}, {"measurement": "inhibition", "setting": "[13]", "result": "< 50", "unit": "%"}, {"measurement": "inhibition", "setting": "[14]", "result": "< 50", "unit": "%"}, {"measurement": "inhibition", "setting": "[15]", "result": "< 50", "unit": "%"}, {"measurement": "inhibition", "setting": "[16]", "result": "< 50", "unit": "%"}, {"measurement": "IC50", "setting": "[17]", "result": "> 30", "unit": "µM"}, {"measurement": "inhibition", "setting": "[18]", "result": "< 50", "unit": "%"}, {"measurement": "inhibition", "setting": "[19]", "result": "< 50", "unit": "%"}, {"measurement": "Cmax", "setting": "[20]", "result": 16, "unit": "nM"}, {"measurement": "inhibition", "setting": "[21]", "result": "< 50", "unit": "%"}, {"measurement": "inhibition", "setting": "[22]", "result": "< 50", "unit": "%"}, {"measurement": "inhibition", "setting": "[23]", "result": "< 50", "unit": "%"}, {"measurement": "inhibition", "setting": "[24]", "result": "< 50", "unit": "%"}]}
